Results from US7572818B2, “2-pyridylethylbenzamide derivative” (Bayer Cropscience S.A., priority 2002, dated 2009).

How the values were obtained:
[1] = test system: Septoria tritici; experiment: In vivo test of activity on Septoria tritici (wheat septoria disease); details: 500 g/ha, preventive spray 24 h before inoculation
Method: In Vivo Test of Activity on Septoria tritici (Wheat Septoria Disease
(§1) An aqueous solution of the active material to be tested is prepared at a concentration of 2 g/l by grinding in solution 1 or solution 2:
(§2) • Water • Tween 80 diluted to 10% in water: 5 μl/mg of active material • Clay in a sufficient amount for active material+clay to equal 100 mg; Solution 2
(§3) Concentrated solution containing surfactants and adjuvants conventionally used: 200 μl/mg of active material.
(§4) The aqueous solution is diluted with water so as to obtain the desired concentration.
Wheat plants of the Scipion variety are sown in a 50/50 pozzolan/peat substrate and maintained at 12° C. The treatment is carried out at the 1-leaf stage (10 cm) by spraying the aqueous suspension. The untreated control plants are sprayed with water.
24 hours after treatment, the plants are inoculated by spraying a solution of Septoria tritici spores (500 000 spores/ml) from a 7-day culture.
The wheat plantlets are then maintained at 18-20° C. in a humid atmosphere for 72 hours, and then at 90% relative humidity. The effectiveness of the products is evaluated relative to the control plants, 21 to 28 days after the contamination.
(§5) The effectiveness of the molecules is estimated, at 500 g/ha, 250 g/ha or 330 ppm, by the percentage of control relative to untreated plants. Under these conditions, good effectiveness is defined as more than 80% effectiveness. Average effectiveness is defined as an effectiveness between 50 and 80%. Poor effectiveness is defined as an effectiveness between 10 and 50% and zero effectiveness is defined as less than 10% effectiveness.

[2] = test system: Botrytis cinerea; experiment: In vivo test of activity on Botrytis cinerea on cucumber; details: preventive spray 24 h before inoculation
Method: In Vivo Test of Activity on Botrytis cinerea on Cucumber
as §1, §2, §3, §4
Cucumbers of the Marketer variety are sown in a 50/50 pozzolan/peat substrate and maintained at 18-22° C. The treatment is carried out by spraying the aqueous suspension. The untreated control plants are sprayed with water.
24 hours after treatment, the plants are inoculated by spraying a solution of Botrytis cinerea spores (150 000 spores/ml) originating from a 15-day culture.
The cucumber plants are then maintained at 11-15° C. in a humid atmosphere. The effectiveness of the products is evaluated relative to the control plants after seven to eight days of incubation.
as §5

[3] = test system: Pyrenophora teres; experiment: In vivo test of activity on Pyrenophora teres (barley net blotch); details: preventive spray 24 h before inoculation
Method: In Vivo Test of Activity on Pyrenophora teres (Barley Net Blotch)
as §1, §2, §3, §4
Barley plants of the Express variety are sown in a 50/50 pozzolan/peat substrate and maintained at 12° C. The treatment is carried out at the 1-leaf stage (10 cm) by spraying the aqueous suspension. The untreated control plants are sprayed with water.
24 hours after treatment, the plants are inoculated by spraying a solution of Pyrenophora teres spores (10 000 spores/ml) originating from a 10-day culture.
The barley plants are then maintained at 18° C. in a humid atmosphere. The effectiveness of the products is evaluated relative to the control plants after eight to fifteen days of incubation.
as §5

[4] = test system: Alternaria brassicae; experiment: In vivo test of activity on Alternaria brassicae (crucifer black spot) on radish; details: preventive spray 24 h before inoculation

Measured: effectiveness (percentage of control relative to untreated plants)

O=C(NCCc1ncc(C(F)(F)F)cc1Cl)c1c(F)cccc1F [Compound A-25]
good to average: [1] | [2]; 500 g/ha | [3]; 500 g/ha | [4]; 500 g/ha

COc1ccccc1C(=O)NCCc1ncc(C(F)(F)F)cc1Cl [Compound A-7]
good to average: [1] | [2]; 500 g/ha | [3]; 500 g/ha | [4]; 500 g/ha

O=C(NCCc1ncc(C(F)(F)F)cc1Cl)c1ccccc1C(F)(F)F [Compound A-20]
good to average: [1] | [2]; 250 g/ha | [2]; 330 ppm | [2]; 500 g/ha | [3]; 250 g/ha | [3]; 330 ppm | [3]; 500 g/ha | [4]; 250 g/ha | [4]; 330 ppm | [4]; 500 g/ha

O=C(NCCc1ncc(C(F)(F)F)cc1Cl)c1ccccc1Cl [Compound A-2]
good to average: [1] | [2]; 500 g/ha | [3]; 500 g/ha | [4]; 500 g/ha
